# From ChEMBL document CHEMBL3885861, “Open TG-GATES”
# Species: Rattus norvegicus
# Assay: Open TG-GATES - Regimen: Daily Repeat
# Format: toxicity, organism-based, Sprague-Dawley
# Parameters: regimen Daily Repeat, gender Male, age 6 weeks
# Details: in vivo, po, route gavage; for APTT / Bas / Eos / Fbg / Hb / Ht / Lym / MCH / MCHC / MCV / Mono / Neu / PT / Plat / RBC / Ret / WBC: tissue Blood; for KIDNEY_L / KIDNEY_R / KIDNEY_TOTAL: tissue Kidney; for LIVER: tissue Liver; for ALP / ALT / AST / BUN / CRE / DBIL / GLC / IP / K / LDH / Na / PL / RALB / TBIL / TC / TG / TP / gamma-GTP: tissue Plasma
# [1] = 0 mg/kg, 72 h, dose level Control, time 3 day
# [2] = 0 mg/kg, […], dose level Control, time 7 day
# [3] = 0 mg/kg, […], dose level Control, time 14 day
# [4] = 0 mg/kg, […], dose level Control, time 28 day
# [5] = 45 mg/kg, 72 h, dose level Low, time 3 day
# [6] = 45 mg/kg, […], dose level Low, time 7 day
# [7] = 45 mg/kg, […], dose level Low, time 14 day
# [8] = 45 mg/kg, […], dose level Low, time 28 day
smiles,measurement,setting,value
CC(CCc1ccccc1)NCC(O)c1ccc(O)c(C(N)=O)c1 (configuration not stated) [LABETALOL],TERMINAL_BW,[1],252.2 g
same,APTT,[1],16.5 s
same,Bas,[1],0%
same,Eos,[1],1%
same,Fbg,[1],295.4 mg/dL
same,Hb,[1],13.4 g/dL
same,Ht,[1],38.9%
same,Lym,[1],75.4%
same,MCH,[1],21.3 pg
same,MCHC,[1],34.3%
same,MCV,[1],62.2 fL
same,Mono,[1],3.6%
same,Neu,[1],19.6%
same,PT,[1],12.8 s
same,Plat,[1],116.3 x10_4/uL
same,RBC,[1],627 x10_4/ul
same,Ret,[1],6.4%
same,WBC,[1],105.6 x10_2/uL
same,KIDNEY_L,[1],1.1 g
same,KIDNEY_R,[1],1.1 g
same,KIDNEY_TOTAL,[1],2.2 g
same,LIVER,[1],12.1 g
same,ALP,[1],1730.4 IU/L
same,ALT,[1],44.2 IU/L
same,AST,[1],70 IU/L
same,BUN,[1],15.4 mg/dL
same,CRE,[1],0.2 mg/dL
same,DBIL,[1],0.014 mg/dL
same,GLC,[1],190.6 mg/dL
same,IP,[1],7.8 mg/dL
same,K,[1],4 meq/L
same,LDH,[1],60.6 IU/L
same,Na,[1],143.4 meq/L
same,PL,[1],158 mg/dL
same,RALB,[1],2.7 g/dL
same,TBIL,[1],0.032 mg/dL
same,TC,[1],85.6 mg/dL
same,TG,[1],111.4 mg/dL
same,TP,[1],5.8 g/dL
same,gamma-GTP,[1],1 IU/L
same,TERMINAL_BW,[2],289.5 g
same,TERMINAL_BW,[3],341.4 g
same,TERMINAL_BW,[4],418.9 g
same,APTT,[2],17.2 s
same,Bas,[2],0%
same,Eos,[2],0.8%
same,Fbg,[2],319.2 mg/dL
same,Hb,[2],13.6 g/dL
same,Ht,[2],38.7%
same,Lym,[2],78.2%
same,MCH,[2],21.4 pg
same,MCHC,[2],35.1%
same,MCV,[2],61 fL
same,Mono,[2],3%
same,Neu,[2],16.8%
same,PT,[2],12.5 s
same,Plat,[2],117.8 x10_4/uL
same,RBC,[2],635.2 x10_4/ul
same,Ret,[2],6%
same,WBC,[2],108.5 x10_2/uL
same,APTT,[3],17.8 s
same,Bas,[3],0.2%
same,Eos,[3],1%
same,Fbg,[3],271.4 mg/dL
same,Hb,[3],14.6 g/dL
same,Ht,[3],42.4%
same,Lym,[3],71.8%
same,MCH,[3],21.1 pg
same,MCHC,[3],34.4%
same,MCV,[3],61.5 fL
same,Mono,[3],2.8%
same,Neu,[3],23.8%
same,PT,[3],12.8 s
same,Plat,[3],104.1 x10_4/uL
same,RBC,[3],689 x10_4/ul
same,Ret,[3],4.5%
same,WBC,[3],82.7 x10_2/uL
same,APTT,[4],18.5 s
same,Bas,[4],0.6%
same,Eos,[4],1.2%
same,Fbg,[4],289 mg/dL
same,Hb,[4],15.1 g/dL
same,Ht,[4],43.5%
same,Lym,[4],76.2%
same,MCH,[4],20.2 pg
same,MCHC,[4],34.8%
same,MCV,[4],58.3 fL
same,Mono,[4],3.2%
same,Neu,[4],18.4%
same,PT,[4],12.9 s
same,Plat,[4],98.3 x10_4/uL
same,RBC,[4],748.2 x10_4/ul
same,Ret,[4],2.5%
same,WBC,[4],98.7 x10_2/uL
same,KIDNEY_L,[2],1.2 g
same,KIDNEY_R,[2],1.2 g
same,KIDNEY_TOTAL,[2],2.5 g
same,KIDNEY_L,[3],1.3 g
same,KIDNEY_R,[3],1.2 g
same,KIDNEY_TOTAL,[3],2.4 g
same,KIDNEY_L,[4],1.4 g
same,KIDNEY_R,[4],1.4 g
same,KIDNEY_TOTAL,[4],2.9 g
same,LIVER,[2],13.1 g
same,LIVER,[3],13.9 g
same,LIVER,[4],16.1 g
same,ALP,[2],1548.4 IU/L
same,ALT,[2],43.4 IU/L
same,AST,[2],69.8 IU/L
same,BUN,[2],14.2 mg/dL
same,CRE,[2],0.2 mg/dL
same,DBIL,[2],0.012 mg/dL
same,GLC,[2],188.4 mg/dL
same,IP,[2],7.8 mg/dL
same,K,[2],3.8 meq/L
same,LDH,[2],64.6 IU/L
same,Na,[2],143.2 meq/L
same,PL,[2],149.2 mg/dL
same,RALB,[2],2.7 g/dL
same,TBIL,[2],0.034 mg/dL
same,TC,[2],85.4 mg/dL
same,TG,[2],86.8 mg/dL
same,TP,[2],5.8 g/dL
same,gamma-GTP,[2],1 IU/L
same,ALP,[3],1377.6 IU/L
same,ALT,[3],45.8 IU/L
same,AST,[3],72.4 IU/L
same,BUN,[3],15.2 mg/dL
same,CRE,[3],0.2 mg/dL
same,DBIL,[3],0.014 mg/dL
same,GLC,[3],197 mg/dL
same,IP,[3],6.9 mg/dL
same,K,[3],3.7 meq/L
same,LDH,[3],79.4 IU/L
same,Na,[3],144.6 meq/L
same,PL,[3],146.8 mg/dL
same,RALB,[3],2.8 g/dL
same,TBIL,[3],0.024 mg/dL
same,TC,[3],74 mg/dL
same,TG,[3],120.8 mg/dL
same,TP,[3],6.2 g/dL
same,gamma-GTP,[3],1 IU/L
same,ALP,[4],1192 IU/L
same,ALT,[4],43.2 IU/L
same,AST,[4],67 IU/L
same,BUN,[4],17 mg/dL
same,CRE,[4],0.2 mg/dL
same,DBIL,[4],0.022 mg/dL
same,GLC,[4],199 mg/dL
same,IP,[4],6.5 mg/dL
same,K,[4],3.6 meq/L
same,LDH,[4],63.8 IU/L
same,Na,[4],142.4 meq/L
same,PL,[4],151.2 mg/dL
same,RALB,[4],2.8 g/dL
same,TBIL,[4],0.036 mg/dL
same,TC,[4],77.6 mg/dL
same,TG,[4],143.2 mg/dL
same,TP,[4],6.3 g/dL
same,gamma-GTP,[4],1 IU/L
same,TERMINAL_BW,[5],254.7 g
same,APTT,[5],16 s
same,Bas,[5],0%
same,Eos,[5],0.8%
same,Fbg,[5],279.4 mg/dL
same,Hb,[5],13.6 g/dL
same,Ht,[5],40.1%
same,Lym,[5],77%
same,MCH,[5],21.7 pg
same,MCHC,[5],33.9%
same,MCV,[5],64.1 fL
same,Mono,[5],3%
same,Neu,[5],18.6%
same,PT,[5],13 s
same,Plat,[5],116.6 x10_4/uL
same,RBC,[5],626.8 x10_4/ul
same,Ret,[5],6.8%
same,WBC,[5],105.9 x10_2/uL
same,KIDNEY_L,[5],1.1 g
same,KIDNEY_R,[5],1.1 g
same,KIDNEY_TOTAL,[5],2.2 g
same,LIVER,[5],11.6 g
same,ALP,[5],1517 IU/L
same,ALT,[5],42.4 IU/L
same,AST,[5],69.8 IU/L
same,BUN,[5],15 mg/dL
same,CRE,[5],0.2 mg/dL
same,DBIL,[5],0.014 mg/dL
same,GLC,[5],186.2 mg/dL
same,IP,[5],7.4 mg/dL
same,K,[5],4 meq/L
same,LDH,[5],64.2 IU/L
same,Na,[5],143.4 meq/L
same,PL,[5],160.8 mg/dL
same,RALB,[5],2.7 g/dL
same,TBIL,[5],0.026 mg/dL
same,TC,[5],87.6 mg/dL
same,TG,[5],116.6 mg/dL
same,TP,[5],5.9 g/dL
same,gamma-GTP,[5],1.2 IU/L
same,TERMINAL_BW,[6],288.7 g
same,TERMINAL_BW,[7],350.6 g
same,TERMINAL_BW,[8],411.6 g
same,APTT,[6],17.4 s
same,Bas,[6],0%
same,Eos,[6],1%
same,Fbg,[6],315.6 mg/dL
same,Hb,[6],14.1 g/dL
same,Ht,[6],40.9%
same,Lym,[6],73%
same,MCH,[6],21.4 pg
same,MCHC,[6],34.6%
same,MCV,[6],61.9 fL
same,Mono,[6],3.4%
same,Neu,[6],22.2%
same,PT,[6],12.8 s
same,Plat,[6],114.7 x10_4/uL
same,RBC,[6],661 x10_4/ul
same,Ret,[6],5.1%
same,WBC,[6],95.2 x10_2/uL
same,APTT,[7],17.7 s
same,Bas,[7],0%
same,Eos,[7],0.8%
same,Fbg,[7],291.6 mg/dL
same,Hb,[7],14.5 g/dL
same,Ht,[7],41.8%
same,Lym,[7],76.4%
same,MCH,[7],21.4 pg
same,MCHC,[7],34.7%
same,MCV,[7],61.5 fL
same,Mono,[7],2.8%
same,Neu,[7],19.6%
same,PT,[7],12.9 s
same,Plat,[7],104.8 x10_4/uL
same,RBC,[7],679.2 x10_4/ul
same,Ret,[7],4.4%
same,WBC,[7],86.7 x10_2/uL
same,APTT,[8],17.8 s
same,Bas,[8],0.4%
same,Eos,[8],1.4%
same,Fbg,[8],276.4 mg/dL
same,Hb,[8],15.5 g/dL
same,Ht,[8],44.6%
same,Lym,[8],75.6%
same,MCH,[8],19.7 pg
same,MCHC,[8],34.6%
same,MCV,[8],56.9 fL
same,Mono,[8],2.6%
same,Neu,[8],19.4%
same,PT,[8],13.1 s
same,Plat,[8],101.1 x10_4/uL
same,RBC,[8],785.2 x10_4/ul
same,Ret,[8],2.4%
same,WBC,[8],108 x10_2/uL
same,KIDNEY_L,[6],1.1 g
same,KIDNEY_R,[6],1.1 g
same,KIDNEY_TOTAL,[6],2.2 g
same,KIDNEY_L,[7],1.3 g
same,KIDNEY_R,[7],1.3 g
same,KIDNEY_TOTAL,[7],2.6 g
same,KIDNEY_L,[8],1.4 g
same,KIDNEY_R,[8],1.4 g
same,KIDNEY_TOTAL,[8],2.8 g
same,LIVER,[6],12.4 g
same,LIVER,[7],12.9 g
same,LIVER,[8],15.8 g
same,ALP,[6],1674.4 IU/L
same,ALT,[6],45 IU/L
same,AST,[6],71.4 IU/L
same,BUN,[6],15.4 mg/dL
same,CRE,[6],0.2 mg/dL
same,DBIL,[6],0.016 mg/dL
same,GLC,[6],192.2 mg/dL
same,K,[6],3.7 meq/L
same,LDH,[6],59.2 IU/L
same,Na,[6],143.2 meq/L
same,PL,[6],163.2 mg/dL
same,RALB,[6],2.7 g/dL
same,TBIL,[6],0.024 mg/dL
same,TC,[6],89.6 mg/dL
same,TG,[6],117.2 mg/dL
same,TP,[6],5.9 g/dL
same,gamma-GTP,[6],1.2 IU/L
same,ALP,[7],1374 IU/L
same,ALT,[7],46.4 IU/L
same,AST,[7],71.8 IU/L
same,BUN,[7],17 mg/dL
same,CRE,[7],0.2 mg/dL
same,DBIL,[7],0.014 mg/dL
same,GLC,[7],191.8 mg/dL
same,IP,[7],8 mg/dL
same,K,[7],3.8 meq/L
same,LDH,[7],57.2 IU/L
same,Na,[7],144.4 meq/L
same,PL,[7],155.4 mg/dL
same,RALB,[7],2.8 g/dL
same,TBIL,[7],0.028 mg/dL
same,TC,[7],76.8 mg/dL
same,TG,[7],131.2 mg/dL
same,TP,[7],6.1 g/dL
same,gamma-GTP,[7],1.2 IU/L
same,ALP,[8],1004.4 IU/L
same,ALT,[8],48.8 IU/L
same,AST,[8],70.4 IU/L
same,BUN,[8],16.6 mg/dL
same,CRE,[8],0.2 mg/dL
same,DBIL,[8],0.018 mg/dL
same,GLC,[8],179.2 mg/dL
same,IP,[8],6.8 mg/dL
same,K,[8],3.7 meq/L
same,LDH,[8],70.6 IU/L
same,Na,[8],143.2 meq/L
same,PL,[8],151.4 mg/dL
same,RALB,[8],2.9 g/dL
same,TBIL,[8],0.038 mg/dL
same,TC,[8],79.2 mg/dL
same,TG,[8],118.2 mg/dL
